Data from US10906873B2, “Substituted cyclic amides as herbicides” (FMC Corporation, priority 2015, dated 2021).

Legend:
Format in all cases: in vivo
[1] = test system: ducksalad (Heteranthera limosa); test: Test B flooded paddy test, ducksalad; settings: Flood, scale of 0 to 100 where 0 is no effect and 100 is complete control, 13 to 15 d
Protocol: (§1) Plant species in the flooded paddy test selected from rice (Oryza sativa), sedge, umbrella (small-flower umbrella sedge, Cyperus difformis), ducksalad (Heteranthera limosa), and barnyardgrass (Echinochloa crus-galli) were grown to the 2-leaf stage for testing. At time of treatment, test pots were flooded to 3 cm above the soil surface, treated by application of test compounds directly to the paddy water, and then maintained at that water depth for the duration of the test. Treated plants and controls were maintained in a greenhouse for 13 to 15 d, after which time all species were compared to controls and visually evaluated. Plant response ratings, summarized in Table B, are based on a scale of 0 to 100 where 0 is no effect and 100 is complete control. A dash (-) response means no test result.

[2] = test system: wheat (Triticum aestivum); test: Test A postemergence, wheat; settings: 0 to 100 scale
Text: (§2) Seeds of plant species selected from barnyardgrass (Echinochloa crus-galli), crabgrass (large crabgrass, Digitaria sanguinalis), kochia (Kochia scoparia), ragweed (common ragweed, Ambrosia elatior), morningglory (Ipomoea spp.), velvetleaf (Abutilon theophrasti), ryegrass, It. (Italian ryegrass, Lolium multiflorum), foxtail, giant (giant foxtail, Setaria faberii), wheat (Triticum aestivum), corn (Zea mays), and pigweed (Amaranthus retroflexus), were planted into a blend of loam soil and sand and treated preemergence with a directed soil spray using test chemicals formulated in a non-phytotoxic solvent mixture which included a surfactant. At the same time, plants selected from these crop and weed species and also blackgrass (Alopecurus myosuroides), and galium (catchweed bedstraw, Galium aparine), were planted in pots containing the same blend of loam soil and sand and treated with postemergence applications of test chemicals formulated in the same manner. Plants ranged in height from 2 to 10 cm and were in the one- to two-leaf stage for the postemergence treatment. Treated plants and untreated controls were maintained in a greenhouse for approximately 10 d, after which time all treated plants were compared to untreated controls and visually evaluated for injury. Plant response ratings, summarized in Table A, are based on a 0 to 100 scale where 0 is no effect and 100 is complete control. A dash (-) response means no test result.

[3] = test system: foxtail, giant (giant foxtail, Setaria faberii); test: Test A preemergence, foxtail, giant; settings: 0 to 100 scale
Text: as §2

[4] = test system: barnyardgrass (Echinochloa crus-galli); test: Test A postemergence, barnyardgrass; settings: 0 to 100 scale
Text: as §2

[5] = test system: barnyardgrass (Echinochloa crus-galli); test: Test B flooded paddy test, barnyardgrass; settings: Flood, scale of 0 to 100 where 0 is no effect and 100 is complete control, 13 to 15 d
Protocol: as §1

[6] = test system: blackgrass (Alopecurus myosuroides); test: Test A postemergence, blackgrass; settings: 0 to 100 scale
Text: as §2

[7] = test system: sedge, umbrella (small-flower umbrella sedge, Cyperus difformis); test: Test B flooded paddy test, sedge, umbrella; settings: Flood, scale of 0 to 100 where 0 is no effect and 100 is complete control, 13 to 15 d
Protocol: as §1

[8] = test system: ryegrass, It. (Italian ryegrass, Lolium multiflorum); test: Test A preemergence, ryegrass, It.; settings: 0 to 100 scale
Text: as §2

[9] = test system: foxtail, giant (giant foxtail, Setaria faberii); test: Test A postemergence, foxtail, giant; settings: 0 to 100 scale
Text: as §2

corn (Zea mays) = test: Test A postemergence, corn; settings: 0 to 100 scale
Text: as §2

kochia (Kochia scoparia) [10] = test: Test A postemergence, kochia; settings: 0 to 100 scale
Text: as §2

[11] = test system: pigweed (Amaranthus retroflexus); test: Test A postemergence, pigweed; settings: 0 to 100 scale
Text: as §2

[12] = test system: ragweed (common ragweed, Ambrosia elatior); test: Test A preemergence, ragweed; settings: 0 to 100 scale
Text: as §2

rice (Oryza sativa) = test: Test B flooded paddy test, rice; settings: Flood, scale of 0 to 100 where 0 is no effect and 100 is complete control, 13 to 15 d
Protocol: as §1

[13] = test system: galium (catchweed bedstraw, Galium aparine); test: Test A postemergence, galium; settings: 0 to 100 scale
Text: as §2

[14] = test system: ryegrass, It. (Italian ryegrass, Lolium multiflorum); test: Test A postemergence, ryegrass, It.; settings: 0 to 100 scale
Text: as §2

kochia (Kochia scoparia) [15] = test: Test A preemergence, kochia; settings: 0 to 100 scale
Text: as §2

[16] = test system: barnyardgrass (Echinochloa crus-galli); test: Test A preemergence, barnyardgrass; settings: 0 to 100 scale
Text: as §2

[17] = test system: pigweed (Amaranthus retroflexus); test: Test A preemergence, pigweed; settings: 0 to 100 scale
Text: as §2

[18] = test system: ragweed (common ragweed, Ambrosia elatior); test: Test A postemergence, ragweed; settings: 0 to 100 scale
Text: as §2

SMILES | Plant response rating, Wheat ([2]; 125 g ai/ha) | Plant response rating, Wheat ([2]; 500 g ai/ha) | Plant response rating, Foxtail, Giant ([3]; 125 g ai/ha) | Plant response rating, Foxtail, Giant ([3]; 500 g ai/ha) | Plant response rating, Barnyardgrass ([4]; 125 g ai/ha) | Plant response rating, Barnyardgrass ([4]; 500 g ai/ha) | Plant response rating, Blackgrass ([6]; 125 g ai/ha) | Plant response rating, Blackgrass ([6]; 500 g ai/ha) | Plant response rating, Ryegrass, It. ([8]; 125 g ai/ha) | Plant response rating, Ryegrass, It. ([8]; 500 g ai/ha) | Plant response rating, Foxtail, Giant ([9]; 125 g ai/ha) | Plant response rating, Foxtail, Giant ([9]; 500 g ai/ha) | Plant response rating, Corn (corn (Zea mays); 125 g ai/ha) | Plant response rating, Corn (corn (Zea mays); 500 g ai/ha) | Plant response rating, Kochia (kochia (Kochia scoparia) [10]; 125 g ai/ha) | Plant response rating, Kochia (kochia (Kochia scoparia) [10]; 500 g ai/ha) | Plant response rating, Pigweed ([11]; 125 g ai/ha) | Plant response rating, Pigweed ([11]; 500 g ai/ha) | Plant response rating, Ragweed ([12]; 125 g ai/ha) | Plant response rating, Ragweed ([12]; 500 g ai/ha) | further results
O=C1NCC(/C=C/c2ccccc2F)C1C(=O)Nc1cccc(F)c1F (stereo not drawn) [Compound 28] | 0 | 0 | 50 | 90 | 50 | 70 | 0 | 0 | 0 | 0 | 20 | 50 | 0 | 0 | 0 | 0 | 0 | 0 | 0 | 0 | Plant response rating, Ducksalad ([1]; 250 g ai/ha): 90; Plant response rating, Barnyardgrass ([5]; 250 g ai/ha): 90; Plant response rating, Sedge, Umbrella ([7]; 250 g ai/ha): 50; Plant response rating, Rice (rice (Oryza sativa); 250 g ai/ha): 10; Plant response rating, Galium ([13]; 125 g ai/ha): 0; Plant response rating, Galium ([13]; 500 g ai/ha): 20; Plant response rating, Ryegrass, It. ([14]; 125 g ai/ha): 0; Plant response rating, Ryegrass, It. ([14]; 500 g ai/ha): 0; Plant response rating, Kochia (kochia (Kochia scoparia) [15]; 125 g ai/ha): 0; Plant response rating, Kochia (kochia (Kochia scoparia) [15]; 500 g ai/ha): 0; Plant response rating, Barnyardgrass ([16]; 125 g ai/ha): 50; Plant response rating, Barnyardgrass ([16]; 500 g ai/ha): 90; Plant response rating, Pigweed ([17]; 125 g ai/ha): 0; Plant response rating, Pigweed ([17]; 500 g ai/ha): 0; Plant response rating, Ragweed ([18]; 125 g ai/ha): 0; Plant response rating, Ragweed ([18]; 500 g ai/ha): 0
O=C(CCC1CNC(=O)C1C(=O)Nc1ccccc1F)Nc1ccc(F)cc1 (stereo not drawn) [Compound 15] | 0 | 0 | 0 | 0 | 0 | 0 | 0 | 0 | 0 | 0 | 0 | 0 | 0 | 0 | 0 | 0 | 0 | 0 | 0 | 0 | Plant response rating, Ducksalad ([1]; 500 g ai/ha): 70; Plant response rating, Barnyardgrass ([5]; 500 g ai/ha): 0; Plant response rating, Sedge, Umbrella ([7]; 500 g ai/ha): 0; Plant response rating, Rice (rice (Oryza sativa); 500 g ai/ha): 0; Plant response rating, Galium ([13]; 125 g ai/ha): 0; Plant response rating, Galium ([13]; 500 g ai/ha): 0; Plant response rating, Ryegrass, It. ([14]; 125 g ai/ha): 0; Plant response rating, Ryegrass, It. ([14]; 500 g ai/ha): 0; Plant response rating, Kochia (kochia (Kochia scoparia) [15]; 125 g ai/ha): 0; Plant response rating, Kochia (kochia (Kochia scoparia) [15]; 500 g ai/ha): 0; Plant response rating, Barnyardgrass ([16]; 125 g ai/ha): 0; Plant response rating, Barnyardgrass ([16]; 500 g ai/ha): 0; Plant response rating, Pigweed ([17]; 125 g ai/ha): 0; Plant response rating, Pigweed ([17]; 500 g ai/ha): 0; Plant response rating, Ragweed ([18]; 125 g ai/ha): 0; Plant response rating, Ragweed ([18]; 500 g ai/ha): 0
